According to ChEMBL document CHEMBL1147474, “Synthesis of new 2'-beta-C-methyl related triciribine analogues as anti-HCV agents” (Bioorg Med Chem Lett, 2004):

Assays:
[1] = system: Huh-7; assay: Compound was tested for its ability to inhibit hepatitis C viral RNA replication in Huh-7 cells (human hepatoma cells); assay type: functional, cell-based
[2] = system: Huh-7; assay: Cytotoxicity using HCV replicon assay; assay type: functional; details: Homo sapiens

Row | SMILES | EC50 [1] [µM] | CC50 [2] [µM]
1 | NC1=NN(Cc2ccccc2)c2ncnc3c2c1cn3[C@@H]1O[C@H](CO)[C@@H](O)[C@H]1O | 125 | > 300
2 | C[C@@]1(O)[C@H](O)[C@@H](CO)O[C@H]1n1cc2c3c(ncnc31)N(CCO)N=C2N | 200 | > 300
3 | CC(=O)NC1=NN(C)c2ncnc3c2c1cn3[C@@H]1O[C@H](CO)[C@@H](O)[C@@]1(C)O | 150 | 300
4 | CCCCN1N=C(N)c2cn([C@@H]3O[C@H](CO)[C@@H](O)[C@@]3(C)O)c3ncnc1c23 | 100 | > 300

The remaining molecules from weak to strong by EC50 [1], led by results:

Row | EC50 [1] [µM] | SMILES | CC50 [2] [µM]
5 | 100 | CCCN1N=C(N)c2cn([C@@H]3O[C@H](CO)[C@@H](O)[C@@]3(C)O)c3ncnc1c23 | > 300
6 | 100 | CC(=O)NC1=NN(CCO)c2ncnc3c2c1cn3[C@@H]1O[C@H](CO)[C@@H](O)[C@@]1(C)O | 200
7 | 20 | NC1=NN(CCO)c2ncnc3c2c1cn3[C@@H]1O[C@H](CO)[C@@H](O)[C@H]1O | > 300
8 | 18 | CN1N=C(N)c2cn([C@@H]3O[C@H](CO)[C@@H](O)[C@@]3(C)O)c3ncnc1c23 | > 300
9 | 15 | CCN1N=C(N)c2cn([C@@H]3O[C@H](CO)[C@@H](O)[C@@]3(C)O)c3ncnc1c23 | > 200
10 | 1 | CCN1N=C(N)c2cn([C@@H]3O[C@H](CO)[C@@H](O)[C@H]3O)c3ncnc1c23 | 150
